Assay results from US20230203098A1, “HUMAN TRANSFERRIN RECEPTOR BINDING PEPTIDE” (priority 2020, published 2023).
*1 amine or outer side, *2 acyl side, *3 side chain or, on linkers, in order; H or OH if unused. Where a SMILES comes first, the peptide text is derived from it. Bridges are numbered along the chain shown (N, C = ends). Where no end group is shown, it is not given here. [ ]: non-standard residue; d: D form. The star is where a group is joined. ξ: configuration not given here. X6 = CC(C)[C@H](CC(=O)[C@H](Cc1ccccc1)N(C)[*:1])C(=O)[*:2]; X2 = O=C(O)c1cc(C(=O)*)ccc1-c1c2ccc(=O)cc-2oc2cc(O)ccc12; Tyr(Me) = COc1ccc(C[C@H](N[*:1])C(=O)[*:2])cc1; NMePhe(3-Cl) = CN[C@@H](Cc1cccc(Cl)c1)C(=O)O; NMeW = CN[C@@H](Cc1c[nH]c2ccccc12)C(=O)O; NMeY = CN[C@@H](Cc1ccc(O)cc1)C(=O)O; PEG4 = NCCOCCOCCOCCOCCC(=O)O; Aib = CC(C)(N)C(=O)O; ξC = NC(CS)C(=O)O

Legend:
[1] = tested on: Human breast cancer cells BT-549; experiment: Migration of 5-FAM peptide conjugates into human breast cancer cells BT-549 (fluorescence microscopy); assay type: cell-based; settings: BT-549 cells, sample diluted to 100 nmol/L, 37° C., 3 hours
Description: Culturing was performed under conditions of 37° C. and 5% CO2.
Collagen Type I (Corning) was diluted to 50 µg/mL with 20 mmol/L acetic acid. A sterilized cover glass was placed in each well of the 24-well plate. After the diluted Collagen Type I solution was added to the plate, the plate was incubated at 37° C. for 1 hour. The Collagen Type I solution was removed from the plate and the plate was washed 3 times with PBS. The human breast cancer cells BT-549 were inoculated in an amount of 1 × 10^5 cells per 1 well and cultured overnight under conditions of 37° C. and 5% CO2.
The sample was diluted with the dilution medium to 100 nmol/L.
The sample solution was removed from the 24-well plate, and the BT-549 cells were washed three times with PBS. 4% paraformaldehyde phosphate buffer (FUJIFILM Wako Pure Chemical Corporation) was added at 500 µL/well, and the cells were allowed to stand at room temperature for 15 minutes and then washed three times with PBS. Further, Hoechst 33342 (Thermo Fisher Scientific) diluted with PBS to 2 µg/mL was added at 500 µL/well, and the cells were allowed to stand at room temperature under shading for 10 minutes and then washed three times with PBS. The cover glass was removed from the 24-well plate, and the cells were enclosed on a slide glass using fluorescent mounting medium (Agilent Technologies) and allowed to stand at room temperature under shading overnight. For the observation, an inverted fluorescence microscope DMI6000B (Leica Microsystems) was used, and the observation was performed at the wavelength for detecting FITC and DAPI. The scale bar in the figures indicates 50 µm.

[2] = target: transferrin receptor (hTfR) (Homo sapiens, UniProt P02786); experiment: Intermolecular interaction evaluation test between transferrin receptor (hTfR) and peptide by surface plasmon resonance (SPR); assay type: binding; settings: SPR, result in words
transferrin receptor (hTfR), sequence (P02786 whole entry): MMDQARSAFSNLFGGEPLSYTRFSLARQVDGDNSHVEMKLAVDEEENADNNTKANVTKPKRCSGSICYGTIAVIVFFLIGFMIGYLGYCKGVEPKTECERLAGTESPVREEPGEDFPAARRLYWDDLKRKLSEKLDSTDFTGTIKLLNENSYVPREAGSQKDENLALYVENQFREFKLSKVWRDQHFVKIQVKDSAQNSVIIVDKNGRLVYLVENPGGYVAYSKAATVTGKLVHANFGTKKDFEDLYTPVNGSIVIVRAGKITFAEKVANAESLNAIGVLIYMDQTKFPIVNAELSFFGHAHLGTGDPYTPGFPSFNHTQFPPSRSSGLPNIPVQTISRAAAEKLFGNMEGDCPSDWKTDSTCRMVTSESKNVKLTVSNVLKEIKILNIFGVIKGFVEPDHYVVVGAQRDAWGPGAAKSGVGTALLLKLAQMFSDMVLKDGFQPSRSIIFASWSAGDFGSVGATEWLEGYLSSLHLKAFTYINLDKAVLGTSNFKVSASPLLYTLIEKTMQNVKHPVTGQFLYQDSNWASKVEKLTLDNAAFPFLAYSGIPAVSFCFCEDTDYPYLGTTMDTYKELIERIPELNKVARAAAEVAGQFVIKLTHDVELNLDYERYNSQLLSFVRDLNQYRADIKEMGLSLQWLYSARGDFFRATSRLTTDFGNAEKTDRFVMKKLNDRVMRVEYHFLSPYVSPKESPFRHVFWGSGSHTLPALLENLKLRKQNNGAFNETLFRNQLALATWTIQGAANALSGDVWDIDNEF
How it was run: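 Receptor was Ni-captured and EDC/NHS-fixed on an NTA chip; running buffer HEPES pH 8.0 with NaCl, Tween 20, BSA and 1.0% DMSO.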

Compound | migration into the cells [1] | hTfR binding ability [2]
Patent ID 447: 5-FAM labelled conjugate of hTfR_894_variant61_PEG4 (AVXVWNYXIIXXFYC; not fully specified; PEG4 linker, 5-FAM label; (3)..(3) Xaa is MeF3C; MOD_RES (5)..(5) …ON; (8)..(8) Xaa is F4OMe; (11)..(11) Xaa is Aib; (12)..(12) Xaa is dr; MOD_RES (14)..(14) …ON) | into the cells was confirmed | –
Patent ID 449: negative control, 5-FAM labelled conjugate of Flip894_variant61_PEG4, a peptide without binding ability to hTfR ({CH2CO}-A[NMeY]F[dR][Aib]IY[Tyr(Me)]YN[NMeW]V[NMePhe(3-Cl)]VC; thioether N-15; not fully specified (C-terminus); also: methylation at Y2 and W11, type not given here) [reference compound] | did not migrate into the cells | no binding to hTfR was observed
Patent ID 448: 5-FAM labelled conjugate of hTfR_894_variant03_PEG4 (AVXVWNYXIIRXFYC; not fully specified; PEG4 linker, 5-FAM label; (3)..(3) Xaa is MeF3C; MOD_RES (5)..(5) …ON; (8)..(8) Xaa is F4OMe; (12)..(12) Xaa is dr; MOD_RES (14)..(14) …ON) | into the cells was confirmed | –
CC[C@H](C)[C@@H]1NC(=O)[C@H](Cc2ccc(O)cc2)NC(=O)[C@H](Cc2ccc(O)cc2)NC(=O)[C@H](CC(N)=O)NC(=O)[C@H](Cc2c[nH]c3ccccc23)NC(=O)[C@H](C(C)C)CC(=O)[C@H](Cc2ccccc2)N(C)C(=O)[C@H](C(C)C)NC(=O)[C@H](C)NC(=O)CSCC(C(=O)NCCOCCOCCOCCOCCC(=O)N[C@H](CCCCNC(=O)c2ccc(-c3c4ccc(=O)cc-4oc4cc(O)ccc34)c(C(=O)O)c2)C(N)=O)NC(=O)[C@H](Cc2ccc(O)cc2)N(C)C(=O)[C@H](Cc2ccc(O)cc2)NC(=O)[C@H](CCCNC(=N)N)NC(=O)[C@H](CCCNC(=N)N)NC(=O)[C@H]([C@@H](C)CC)NC1=O (some centres unmarked) [Patent ID 446] ({CH2CO}-AV[X6]WNYYIIRRY[NMeY][ξC][PEG4][dK](X2)-NH2; thioether N-14) | into the cells was confirmed | –
